Results from patent publication US9670219B2, “Tetrahydrooxepinopyridine compound” (ASTELLAS PHARMA INC., priority 2015, dated 2017).
Structures can show the parent of a compound that is named as a salt.

Key:
human α7 nACh receptor [1] = biological target: T1, human α7 nACh receptor (Homo sapiens, UniProt P36544); assay: Evaluation for human α7 nACh receptor using FLIPR (intracellular calcium response, PAM activity); format: cell-based; settings: for Max: maximum response of test drug with agonist PNU-282987, relative to maximum response of PNU-120596 = 100%; for EC20: test drug concentration giving 20% response, maximum response of PNU-120596 with agonist PNU-282987 (0.6 μM) = 100%, HEK293 cells co-expressing human α7 nACh receptor/rat RIC3
T1 construct: expressed in transfected cells; host or cells: HEK293 cells (ATCC CRL-1573), transient co-transfection by electroporation with rat RIC3 (NM_001115045.3)
Description: Assay buffer: HBSS buffer containing 1.25 mM probenecid.
The PAM activity of a test drug was evaluated in terms of Ca^2+ dye-based fluorescence intensity for an intracellular calcium response in the presence of an α7 nACh receptor-selective agonist PNU-282987 (CAS registry number: 123464-89-1, Tocris) using a FLIPR tetra (Molecular Devices).
In the case where a concentration-response curve has been obtained in which the logarithm of a concentration of a test drug is on the abscissa and the ratio of a response (hereinafter, also referred to as calcium response) is on the ordinate, this test drug has been determined to have a PAM activity.
In this test, the agonist (PNU-282987) elicited a calcium response only in the presence of PAM (PNU-120596).
The coding sequence of a human α7 nACh receptor (accession number: NM_000746.5) was subcloned into a pCEP4 vector (Life Technologies). The coding sequence of a rat chaperone protein RIC3 (accession number: NM_001115045.3) was subcloned into a pcDNA3.1/Hygro (+) vector (Life Technologies). The resulting constructs were transfected into HEK293 cells (ATCC number: CRL-1573) by an electroporation method using Neon (Life Technologies).
The transiently expressing cells obtained in the manner described above were seeded at a density of 8×10^3 cells/well onto a 384-well plate (Becton Dickinson) and allowed to stand overnight at 37° C. DMEM+10% FBS was used as a medium.
On the next day, the medium was removed, and Fluo4-AM (Dojindo) prepared using an assay buffer was applied, followed by allowing to stand for 1 hour. The test drug was dissolved in DMSO and then made to a final concentration of 0.03 to 100 μM (3-fold dilutions) with an assay buffer. Similarly, PNU-120596 which is a known PAM was made to a final concentration of 0.003 to 10 μM (3-fold dilutions). PNU-282987 which is an agonist was made to a final concentration of 0.6 μM. Thereafter, the test drug was applied to the cells using a FLIPR tetra, the agonist (PNU-282987) was added 5 minutes later, and the fluorescence intensity at that time was detected.
As a control, using (1) a group with neither addition of a test drug, PAM (PNU-120596) nor that of agonist (PNU-282987), the response thereof was set to 0%. Using (2) a group with the addition of PAM (PNU-120596) and agonist (PNU-282987), the maximum response thereof was set to 100%.
To quantitatively compare the PAM activity of the test drug, an EC20 value and a Max value were used as activity indicators. […] The EC20 value was calculated using a non-linear regression analysis from the concentration-response curve of a human α7 nACh receptor with the addition of a test drug. The Max value refers to a maximum response value. The Max value is expressed in terms of % value of the maximum response of a test drug in the presence of an agonist (PNU-282987) relative to when the maximum response of PAM (PNU-120596) in the presence of an agonist (PNU-282987) is set to 100%.

human α7 nACh receptor [2] = biological target: T1, human α7 nACh receptor; assay: Electrophysiological evaluation for human α7 nACh receptor (Qpatch HTX or Qube current response); format: cell-based; set-up: key: positive: an inward current response specific to a human α7 nACh receptor was obtained when 3 μM of a test drug had been added; negative: a specific current response was not observed; settings: 3 μM test drug added simultaneously with 100 μM AChCl; voltage-clamped at −90 mV
Description: The PAM activity of a test drug was evaluated by a current response in the presence of an α7 nACh receptor agonist Acetylcholine chloride (Sigma) (hereinafter, also referred to as AChCl) using Qpatch HTX (Biolin Scientific) or Qube (Biolin Scientific). This test cannot detect a small current response of AChCl alone. The current response can be detected only in the case where the test drug has a PAM activity.
Extracellular fluid (pH 7.4): NaCl 145 mM, KCl 4 mM, HEPES 10 mM, CaCl2 2 mM, MgCl2 1 mM.
Intracellular fluid (pH 7.2): KF 120 mM, KCl 20 mM, EGTA 0.1 mM, HEPES 10 mM, MgCl2 2 mM.
The cells were obtained in the same manner as in Test Example 1.
The response of a human α7 nACh receptor with the addition of a test drug was measured by the following experiment. Transient expression cells obtained by the method described above were subjected to the experiment after allowing to stand overnight at 37° C. The test drug was dissolved in DMSO, and then made to a final concentration of 3 μM using extracellular fluid. The agonist AChCl was made to a final concentration of 100 μM. The membrane potential was voltage-clamped at −90 mV. The current response was measured by multi-hole mode at the time of simultaneous addition of the test drug and AChCl to the cells, using QPatch HTX or Qube.
As a result of the tests above, the case where an inward current response specific to a human α7 nACh receptor was obtained when 3 μM of a test drug had been added was determined as positive, and the case where a specific current response was not observed was determined as negative. It should be noted that, when the agonist concentration is 0, the current response was not observed even with the addition of a test drug.

T1 sequence (P36544 23-502): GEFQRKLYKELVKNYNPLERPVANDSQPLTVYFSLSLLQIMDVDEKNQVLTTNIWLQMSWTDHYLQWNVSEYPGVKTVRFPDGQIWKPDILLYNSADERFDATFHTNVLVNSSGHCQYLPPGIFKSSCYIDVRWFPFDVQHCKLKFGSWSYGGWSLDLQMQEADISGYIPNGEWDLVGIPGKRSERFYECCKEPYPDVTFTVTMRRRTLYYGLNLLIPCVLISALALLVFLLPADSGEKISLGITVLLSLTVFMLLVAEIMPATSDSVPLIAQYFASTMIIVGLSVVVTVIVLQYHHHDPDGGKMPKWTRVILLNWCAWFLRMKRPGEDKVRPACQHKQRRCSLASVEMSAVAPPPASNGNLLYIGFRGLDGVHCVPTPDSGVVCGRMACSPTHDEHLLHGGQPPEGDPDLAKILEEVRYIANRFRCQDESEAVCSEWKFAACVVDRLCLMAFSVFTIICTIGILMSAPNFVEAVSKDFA

| SMILES | Max (human α7 nACh receptor [1]) [%] | EC20 (human α7 nACh receptor [1]) [µM] | Dat. 1 (Determination) (human α7 nACh receptor [2]) | further results |
| --- | --- | --- | --- | --- |
| O=C(Nc1cccnn1)c1cc(N2CCC[C@H](C(F)(F)F)C2)nc2c1CCOCC2 [Ex 1, N-(pyridazin-3-yl)-2-[(3S)-3-(trifluoromethyl)piperidin-1-yl]-5,6,8,9-tetrahydrooxepino[4,5-b]pyridine-4-carboxamide fumarate] | 99.8 | 2.72 | – | – |
| O=C(Nc1cccnn1)c1cc(N2CCC[C@@H](C(F)(F)F)C2)nc2c1CCOCC2 [Ex 7, N-(pyridazin-3-yl)-2-[(3R)-3-(trifluoromethyl)piperidin-1-yl]-5,6,8,9-tetrahydrooxepino[4,5-b]pyridine-4-carboxamide fumarate] | 94.8 | 0.512 | – | – |
| CC1(C)CN(c2cc(C(=O)Nc3cccnn3)c3c(n2)CCOCC3)CC(C)(C)O1 [Ex 9, N-(pyridazin-3-yl)-2-(2,2,6,6-tetramethylmorpholin-4-yl)-5,6,8,9-tetrahydrooxepino[4,5-b]pyridine-4-carboxamide hydrochloride] | 69.3 | 3.52 | – | – |
| C[C@@H]1CN(c2cc(C(=O)Nc3ccc(F)cn3)c3c(n2)CCOCC3)C[C@H](C)O1 [Ex 12, 2-[(2R,6S)-2,6-dimethylmorpholin-4-yl]-N-(5-fluoropyridin-2-yl)-5,6,8,9-tetrahydrooxepino[4,5-b]pyridine-4-carboxamide] | 96.9 | 4.35 | – | – |
| C[C@@H]1CN(c2cc(C(=O)Nc3ccc(Cl)cn3)c3c(n2)CCOCC3)C[C@H](C)O1 [Ex 18, N-(5-chloropyridin-2-yl)-2-[(2R,6S)-2,6-dimethylmorpholin-4-yl]-5,6,8,9-tetrahydrooxepino[4,5-b]pyridine-4-carboxamide hydrochloride] | 79.2 | 1.02 | positive | – |
| COc1ccc(NC(=O)c2cc(N3CCC[C@H]3C)nc3c2CCOCC3)nn1 [Ex 36] | – | – | positive | – |
| Cc1cncc(NC(=O)c2cc(N3CCC[C@@H]3C)nc3c2CCOCC3)n1 [Ex 40, N-(6-methylpyrazin-2-yl)-2-[(2S)-2-methylpyrrolidin-1-yl]-5,6,8,9-tetrahydrooxepino[4,5-b]pyridine-4-carboxamide hydrochloride] | – | – | positive | – |
| Cc1ncc(NC(=O)c2cc(N3CCC[C@H]3C)nc3c2CCOCC3)nc1C [Ex 46] | – | – | positive | – |
| CO[C@H]1CCN(c2cc(C(=O)Nc3cccc(C#N)c3)c3c(n2)CCOCC3)C1 [Ex 48, N-(3-cyanophenyl)-2-[(3S)-3-methoxypyrrolidin-1-yl]-5,6,8,9-tetrahydrooxepino[4,5-b]pyridine-4-carboxamide hydrochloride] | – | – | positive | – |
| O=C(Nc1cccnn1)c1cc(N2CCC(F)CC2)nc2c1CCOCC2 [Ex 50] | – | – | positive | – |
| O=C(Nc1ccc(Cl)cn1)c1cc(N2CCC(F)CC2)nc2c1CCOCC2 [Ex 51, N-(5-chloropyridin-2-yl)-2-(4-fluoropiperidin-1-yl)-5,6,8,9-tetrahydrooxepino[4,5-b]pyridine-4-carboxamide] | – | – | positive | – |
| Cc1ncc(NC(=O)c2cc(N3CCC[C@@H]3C)nc3c2CCOCC3)nc1C [Ex 55] | – | – | positive | – |
| C[C@H]1CCCCN1c1cc(C(=O)Nc2cccnn2)c2c(n1)CCOCC2 [Ex 69, 2-[(2S)-2-methylpiperidin-1-yl]-N-(pyridazin-3-yl)-5,6,8,9-tetrahydrooxepino[4,5-b]pyridine-4-carboxamide hydrochloride] | – | – | positive | – |
| C[C@H]1CCCCN1c1cc(C(=O)Nc2cnccn2)c2c(n1)CCOCC2 [Ex 70, 2-[(2S)-2-methylpiperidin-1-yl]-N-(pyrazin-2-yl)-5,6,8,9-tetrahydrooxepino[4,5-b]pyridine-4-carboxamide hydrochloride] | – | – | positive | – |
| O=C(Nc1ccc(Cl)cn1)c1cc(N2CCC[C@H](F)C2)nc2c1CCOCC2 [Ex 76, N-(5-chloropyridin-2-yl)-2-[(3S)-3-fluoropiperidin-1-yl]-5,6,8,9-tetrahydrooxepino[4,5-b]pyridine-4-carboxamide benzenesulfonate] | – | – | positive | – |
| O=C(N[C@H]1CN2CCC1CC2)c1ccc(Cl)cc1 [PNU-282987, N-(3R)-1-azabicyclo[2.2.2]octo-3-yl-4-chlorobenz amide, reference compound] | – | – | – | calcium response, substance alone (human α7 nACh receptor [1]; agonist alone or test compound alone): not elicited |
